Results from ChEMBL document CHEMBL1154540, “Synthesis of 10-substituted triazolyl artemisinins possessing anticancer activity via Huisgen 1,3-dipolar cylcoaddition” (2009).

Columns and labels:
[1] = tested on: DLD-1; test: Cytotoxicity against human DLD1 cells after 72 hrs by MTT colorimetric assay; format: functional; settings: DLD-1, 72 h
[2] = Cytotoxicity against human U87 cells after 72 hrs by MTT colorimetric assay; format: functional, U-87MG ATCC; settings: U-87 MG
[3] = tested on: HeLa; test: Cytotoxicity against human HeLa cells after 72 hrs by MTT colorimetric assay; format: functional
[4] = tested on: SiHa; test: Cytotoxicity against human SiHa cells after 72 hrs by MTT colorimetric assay; format: functional
[5] = Cytotoxicity against human A172 cells after 72 hrs by MTT colorimetric assay; format: functional; settings: A 172, 72 h
[6] = tested on: B16; test: Cytotoxicity against mouse B16 cells after 72 hrs by MTT colorimetric assay; format: functional; settings: B16, 72 h

Row | Compound | GI50 [1] [nM] | GI50 [2] [nM] | GI50 [3] [nM] | GI50 [4] [nM] | GI50 [5] [nM] | GI50 [6] [nM]
1 | C=C(C)c1cn([C@@H]2O[C@@H]3O[C@@]4(C)CC[C@H]5[C@H](C)CC[C@@H]([C@H]2C)[C@@]35OO4)nn1 | 23000 | 830 | 310 | 1130 | 1310 | 1320
2 | C[C@@H]1[C@@H](n2cc(-c3ccccc3)nn2)O[C@@H]2O[C@@]3(C)CC[C@H]4[C@H](C)CC[C@@H]1[C@@]24OO3 | 29700 | 2860 | 720 | 3220 | 2500 | 8780
3 | COc1ccc(-c2cn([C@@H]3O[C@@H]4O[C@@]5(C)CC[C@H]6[C@H](C)CC[C@@H]([C@H]3C)[C@@]46OO5)nn2)cc1 | 6680 | 1220 | 560 | 350 | 1210 | 900
4 | C[C@H]1[C@H](n2cc(-c3ccc(F)cc3)nn2)O[C@@H]2O[C@@]3(C)CC[C@H]4[C@H](C)CC[C@@H]1[C@@]24OO3 | 140 | 340 | 600 | 350 | 420 | 430
5 | C[C@H]1[C@H](n2cc(-c3cccc(Cl)c3)nn2)O[C@@H]2O[C@@]3(C)CC[C@H]4[C@H](C)CC[C@@H]1[C@@]24OO3 | 14200 | 160 | 80 | 150 | 370 | 60
6 | C[C@H]1[C@@H](N=[N+]=[N-])O[C@@H]2O[C@@]3(C)CC[C@H]4[C@H](C)CC[C@@H]1[C@@]24OO3 | 9440 | 1970 | 490 | 1130 | 2310 | > 50000
7 | C[C@H]1[C@H](N=[N+]=[N-])O[C@@H]2O[C@@]3(C)CC[C@H]4[C@H](C)CC[C@@H]1[C@@]24OO3 | > 50000 | 1060 | 1930 | 1470 | 890 | 1560
8 | Cc1ccc(-c2cn([C@@H]3O[C@@H]4O[C@@]5(C)CC[C@H]6[C@H](C)CC[C@@H]([C@H]3C)[C@@]46OO5)nn2)cc1 | 80 | 110 | 50 | 150 | 330 | 240
9 | CCCCCc1ccc(-c2cn([C@@H]3O[C@@H]4O[C@@]5(C)CC[C@H]6[C@H](C)CC[C@@H]([C@H]3C)[C@@]46OO5)nn2)cc1 | 30 | 80 | 30 | 90 | 100 | 80
10 | C[C@H]1[C@H](n2cc(-c3ccccc3)nn2)O[C@@H]2O[C@@]3(C)CC[C@H]4[C@H](C)CC[C@@H]1[C@@]24OO3 | 12100 | 430 | 210 | 540 | 450 | 1250
11 | C[C@@H]1[C@@H](N=[N+]=[N-])O[C@@H]2O[C@@]3(C)CC[C@H]4[C@H](C)CC[C@@H]1[C@@]24OO3 | > 50000 | 11200 | > 50000 | 9070 | 16800 | > 50000
12 | C[C@H]1[C@H](n2cc(-c3cc(F)cc(F)c3)nn2)O[C@@H]2O[C@@]3(C)CC[C@H]4[C@H](C)CC[C@@H]1[C@@]24OO3 | 22900 | 140 | 140 | 200 | 290 | 160
13 | C[C@H]1[C@@H](n2cc(-c3ccccc3)nn2)O[C@@H]2O[C@@]3(C)CC[C@H]4[C@H](C)CC[C@@H]1[C@@]24OO3 | 520 | 230 | 130 | 260 | 220 | 300
14 | CC(=O)O[C@H]1C(=O)[C@@]2(C)[C@H]([C@H](OC(=O)c3ccccc3)[C@]3(O)C[C@H](OC(=O)[C@H](O)[C@@H](NC(=O)c4ccccc4)c4ccccc4)C(C)=C1C3(C)C)[C@]1(OC(C)=O)CO[C@@H]1C[C@@H]2O [PACLITAXEL] | 10 | 20 | 20 | 30 | 10 | 10
